The first test concerns the target TrkA kinase (Homo sapiens, UniProt P04629). The test can be described thus: TrkA kinase assay (mobility shift assay). Type of test: biochemical. The conditions noted are these: class symbols; read-out: Trk A Kinase IC50. Here is the method:
Example 201 TrkA Kinase Assay
Mobility shift assay was used to determine the inhibitory activity of compounds against TrkA kinase. Assay procedures are as follows:
1× Kinase base buffer (50 mM HEPES, pH 7.5; 0.0015% Brij-35)
Stop buffer (100 mM HEPES, pH 7.5; 0.015% Brij-35; 0.2% Coating Reagent #3; 50 mM EDTA)
1) Dilute the compound to 50× of the final desired highest inhibitor concentration in reaction by 100% DMSO. Transfer 100 μl of this compound dilution to a well in a 96-well plate.
2) For all compounds, transfer the compound in tubes to one well on 96-well storage plate and serially dilute the compound by transferring 30 μl to 60 μl of 100% DMSO in the next well and so forth for a total of 10 concentrations.
3) Add 100 μl of 100% DMSO to two empty wells for no compound control and no enzyme control in the same 96-well plate. Mark the plate as source plate.
4) Prepare intermediate plate
Transfer 10 μl of compound from source plate to a new 96-well plate as the intermediate plate
Add 90 µl of 1× kinase buffer to each well of the intermediate plate.
Mix the compounds in intermediate plate for 10 min on shaker.
1) Transfer 5 μl of each well from the 96-well intermediate plate to a 384-well plate in duplicates. For example, A1 of the 96-well plate is transferred to A1 and A2 of the 384-well plate. A2 of the 96-well plate is transferred to A3 and A4 of the 384-well plate, and so on.
1) Prepare 2.5× enzyme solution
Add kinase in 1× kinase base buffer.
2) Prepare 2.5× peptide solution Add FAM-labeled peptide and ATP in the 1× kinase base buffer.
3) Assay plate already contains 5 μl of compound in 10% DMSO.
4) Transfer 2.5× enzyme solution to the assay plate
Add 10 μl of 2.5× enzyme solution to each well of the 384-well assay plate.
5) Incubate at room temperature for 10 min.
6) Transfer 2.5× peptide solution to the assay plate
Add 10 μl of 2.5× peptide solution to each well of the 384-well assay plate.
Kinase reaction conditions are shown as Table 11:
7) Kinase reaction and stop
Incubate at 28° C. for specified period of time.
Add 25 μl of stop buffer to stop reaction.
1) Copy conversion data from Caliper program.
2) Convert conversion values to inhibition values.
Percent inhibition=(max-conversion)/(max-min)*100.
“max” stands for DMSO control; “min” stands for low control.
3) Fit the data in XLFit excel add-in version 5.4.0.8 to obtain IC50 values.
Equation used is: Y=Bottom+(Top-Bottom)/(1+(IC50/X)^HillSlope)
Sequence of TrkA kinase (P04629 33-796): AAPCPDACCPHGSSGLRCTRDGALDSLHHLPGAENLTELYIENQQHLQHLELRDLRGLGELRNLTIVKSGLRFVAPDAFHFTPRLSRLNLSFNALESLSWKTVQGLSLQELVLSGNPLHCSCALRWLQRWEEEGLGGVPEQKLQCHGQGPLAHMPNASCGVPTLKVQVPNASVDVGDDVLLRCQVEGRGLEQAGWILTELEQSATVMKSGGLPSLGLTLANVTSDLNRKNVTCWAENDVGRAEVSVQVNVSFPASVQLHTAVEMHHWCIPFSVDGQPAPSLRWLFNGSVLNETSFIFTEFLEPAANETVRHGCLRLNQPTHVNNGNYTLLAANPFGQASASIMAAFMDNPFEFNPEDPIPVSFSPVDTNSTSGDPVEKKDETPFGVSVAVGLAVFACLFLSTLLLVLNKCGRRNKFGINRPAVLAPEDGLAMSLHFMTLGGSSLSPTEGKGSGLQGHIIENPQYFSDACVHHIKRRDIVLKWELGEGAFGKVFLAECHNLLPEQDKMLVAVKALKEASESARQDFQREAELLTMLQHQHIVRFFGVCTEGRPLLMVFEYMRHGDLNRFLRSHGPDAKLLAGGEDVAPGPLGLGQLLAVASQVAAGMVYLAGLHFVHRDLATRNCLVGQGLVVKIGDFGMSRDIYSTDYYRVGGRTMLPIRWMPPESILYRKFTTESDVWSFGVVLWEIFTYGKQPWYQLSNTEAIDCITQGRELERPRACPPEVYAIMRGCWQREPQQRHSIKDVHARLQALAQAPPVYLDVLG
Usually IC50 stands for the midpoint of a concentration-inhibition curve. Consider `Fc1ccc(F)c([C@H]2CCCN2c2ccn3ncc(-c4nnc(-c5ccc(N6CCOCC6)cc5)[nH]4)c3n2)c1` [Compound 1, (R)-4-(4-(5-(5-(2-(2,5-difluorophenyl)pyrrolidin-1-yl)pyrazolo[1,5-a]pyrimidin-3-yl)-4H-1,2,4-triazol-3-yl)phenyl)morpholine], for which the IC50 was ≤ 10 nM. Still for that read-out and setting: in the case of `Fc1ccc(F)c([C@H]2CCCN2c2ccn3ncc(-c4nnc(C5CCOC5)[nH]4)c3n2)c1` (stereo partly drawn) [Compound 3, 5-((R)-2-(2,5-difluorophenyl)pyrrolidin-1-yl)-3-(5-(tetrahydrofuran-3-yl)-4H-1,2,4-triazol-3-yl)pyrazolo[1,5-a]pyrimidine] it was 10 to 50 nM. Consider `Fc1ccc(F)c([C@H]2CCCN2c2ccn3ncc(-c4nnc(-c5ccnc(N6CCOCC6)c5)[nH]4)c3n2)c1` [Compound 6, (R)-4-(4-(5-(5-(2-(2,5-difluorophenyl)pyrrolidin-1-yl)pyrazolo[1,5-a]pyrimidin-3-yl)-4H-1,2,4-triazol-3-yl)pyridin-2-yl)morpholine], for which the IC50 is ≤ 10 nM. The same measure, in the same setting: in the case of `Fc1ccc(F)c([C@H]2CCCN2c2ccn3ncc(-c4nnc(C5CCN5)[nH]4)c3n2)c1` (stereo partly drawn) [Compound 15, 3-(5-(azetidin-2-yl)-4H-1,2,4-triazol-3-yl)-5-((R)-2-(2,5-difluorophenyl)pyrrolidin-1-yl)pyrazolo[1,5-a]pyrimidine] it was > 50 nM.

On to `OC1CC[C@H](c2nnc(-c3cnn4ccc(N5CCC[C@@H]5c5cc(F)ccc5F)nc34)[nH]2)C1` (stereo partly drawn) [Compound 19, (3S)-3-(5-(5-((R)-2-(2,5-difluorophenyl)pyrrolidin-1-yl)pyrazolo[1,5-a]pyrimidin-3-yl)-4H-1,2,4-triazol-3-yl)cyclopentan-1-ol], for which the IC50 was ≤ 10 nM. Same read-out and setting: in the case of `Cn1c(-c2ccnc(N3CCC(O)CC3)c2)nnc1-c1cnn2ccc(N3CCC[C@@H]3c3cc(F)ccc3F)nc12` [Compound 21, (R)-1-(4-(5-(5-(2-(2,5-difluorophenyl)pyrrolidin-1-yl)pyrazolo[1,5-a]pyrimidin-3-yl)-4-methyl-4H-1,2,4-triazol-3-yl)pyridin-2-yl)piperidin-4-ol] it was > 50 nM; in that of `C[C@](O)(c1nnc(-c2cnn3ccc(N4CCC[C@@H]4c4cc(F)ccc4F)nc23)[nH]1)C(F)(F)F` [Compound 25, (S)-2-(5-(5-((R)-2-(2,5-difluorophenyl)pyrrolidin-1-yl)pyrazolo[1,5-a]pyrimidin-3-yl)-4H-1,2,4-triazol-3-yl)-1,1,1-trifluoropropan-2-ol], 10 to 50 nM. As for `OC(c1nnc(-c2cnn3ccc(N4CCC[C@@H]4c4cc(F)ccc4F)nc23)[nH]1)(C(F)(F)F)C(F)(F)F` [Compound 27, (R)-2-(5-(5-(2-(2,5-difluorophenyl)pyrrolidin-1-yl)pyrazolo[1,5-a]pyrimidin-3-yl)-4H-1,2,4-triazol-3-yl)-1,1,1,3,3,3-hexafluoropropan-2-ol], the IC50 is > 50 nM.

Take `CCC(O)(c1nnc(-c2cnn3ccc(N4CCC[C@@H]4c4cc(F)ccc4F)nc23)[nH]1)C(F)(F)F` (stereo partly drawn) [Compound 28, 2-(5-(5-((R)-2-(2,5-difluorophenyl)pyrrolidin-1-yl)pyrazolo[1,5-a]pyrimidin-3-yl)-4H-1,2,4-triazol-3-yl)-1,1,1-trifluorobutan-2-ol]: the IC50 was > 50 nM. On the same count and under the same terms, in the case of `Fc1ccc(F)c([C@H]2CCCN2c2ccn3ncc(-c4nnc(C5CCOCC5)[nH]4)c3n2)c1` [Compound 32, (R)-5-(2-(2,5-difluorophenyl)pyrrolidin-1-yl)-3-(5-(tetrahydro-2H-pyran-4-yl)-4H-1,2,4-triazol-3-yl)pyrazolo[1,5-a]pyrimidine] it was 10 to 50 nM; in that of `OC1CCNC(c2nnc(-c3cnn4ccc(N5CCC[C@@H]5c5cc(F)ccc5F)nc34)[nH]2)C1` (stereo partly drawn) [Compound 35, 2-(5-(5-((R)-2-(2,5-difluorophenyl)pyrrolidin-1-yl)pyrazolo[1,5-a]pyrimidin-3-yl)-4H-1,2,4-triazol-3-yl)piperidin-4-ol], 10 to 50 nM.

Still in this test, the particulars now being: numeric values; read-out: Trk A Kinase IC50.
As for `OC1CCN(c2cc(-c3nnc(-c4cnn5ccc(N6CCC[C@@H]6c6cc(F)ccc6F)nc45)[nH]3)ccn2)CC1` [Compound 2, (R)-1-(4-(5-(5-(2-(2,5-difluorophenyl)pyrrolidin-1-yl)pyrazolo[1,5-a]pyrimidin-3-yl)-4H-1,2,4-triazol-3-yl)pyridin-2-yl)piperidin-4-ol], the IC50 was determined as 0.43 nM.

As to `O[C@H]1CC[C@@H](c2nnc(-c3cnn4ccc(N5CCC[C@@H]5c5cc(F)ccc5F)nc34)[nH]2)CC1` [Compound 5, (1S,4s)-4-(5-(5-((R)-2-(2,5-difluorophenyl)pyrrolidin-1-yl)pyrazolo[1,5-a]pyrimidin-3-yl)-4H-1,2,4-triazol-3-yl)cyclohexan-1-ol], the half-maximal inhibitory concentration (IC50) amounted to 1.8 nM. On the same count and under the same terms, under `CC(C)(C)OC(=O)N1CCC1c1nnc(-c2cnn3ccc(N4CCC[C@@H]4c4cc(F)ccc4F)nc23)[nH]1` (stereo partly drawn) [Compound 20, tert-butyl 2-(5-(5-((R)-2-(2,5-difluorophenyl)pyrrolidin-1-yl)pyrazolo[1,5-a]pyrimidin-3-yl)-4H-1,2,4-triazol-3-yl)azetidine-1-carboxylate] stands 47 nM; under `CC(O)(Cc1nnc(-c2cnn3ccc(N4CCC[C@@H]4c4cc(F)ccc4F)nc23)[nH]1)C(F)(F)F` (stereo partly drawn) [Compound 29, 3-(5-(5-((R)-2-(2,5-difluorophenyl)pyrrolidin-1-yl)pyrazolo[1,5-a]pyrimidin-3-yl)-4H-1,2,4-triazol-3-yl)-1,1,1-trifluoro-2-methylpropan-2-ol], 1.4 nM. The same measure, in the same setting: in the case of `CC(C)(CO)c1nnc(-c2cnn3ccc(N4CCC[C@@H]4c4cc(F)ccc4F)nc23)[nH]1` [Compound 33, (R)-2-(5-(5-(2-(2,5-difluorophenyl)pyrrolidin-1-yl)pyrazolo[1,5-a]pyrimidin-3-yl)-4H-1,2,4-triazol-3-yl)-2-methylpropan-1-ol] it was 2.41 nM; in that of `OC12CC3CC(C1)CC(c1nnc(-c4cnn5ccc(N6CCC[C@@H]6c6cc(F)ccc6F)nc45)[nH]1)(C3)C2` [Compound 37, (1R,3r)-3-(5-(5-((R)-2-(2,5-difluorophenyl)pyrrolidin-1-yl)pyrazolo[1,5-a]pyrimidin-3-yl)-4H-1,2,4-triazol-3-yl)adamantan-1-ol], 1.57 nM. Same read-out and setting: under `CN1CCC(c2nnc(-c3cnn4ccc(N5CCC[C@@H]5c5cc(F)ccc5F)nc34)[nH]2)CC1` [Compound 38, (R)-5-(2-(2,5-difluorophenyl)pyrrolidin-1-yl)-3-(5-(1-methylpiperidin-4-yl)-4H-1,2,4-triazol-3-yl)pyrazolo[1,5-a]pyrimidine] stands 11.7 nM. With `Fc1ccc(F)c([C@H]2CCCN2c2ccn3ncc(-c4nnc(C5CCC(F)(F)CC5)[nH]4)c3n2)c1` [Compound 41, (R)-3-(5-(4,4-difluorocyclohexyl)-4H-1,2,4-triazol-3-yl)-5-(2-(2,5-difluorophenyl)pyrrolidin-1-yl)pyrazolo[1,5-a]pyrimidine], the IC50 was 3.92 nM. Still for that read-out and setting: under `O[C@H](c1ccccc1)c1nnc(-c2cnn3ccc(N4CCC[C@@H]4c4cc(F)ccc4F)nc23)[nH]1` [Compound 42, (R)-(5-(5-((R)-2-(2,5-difluorophenyl)pyrrolidin-1-yl)pyrazolo[1,5-a]pyrimidin-3-yl)-4H-1,2,4-triazol-3-yl)(phenyl)methanol] stands 3.9 nM; under `OCC12CC(c3nnc(-c4cnn5ccc(N6CCC[C@@H]6c6cc(F)ccc6F)nc45)[nH]3)(C1)C2` [Compound 43, (R)-(3-(5-(5-(2-(2,5-difluorophenyl)pyrrolidin-1-yl)pyrazolo[1,5-a]pyrimidin-3-yl)-4H-1,2,4-triazol-3-yl)bicyclo[1.1.1]pentan-1-yl)methanol], 2.51 nM. The same measure, in the same setting: under `NC12CC(c3nnc(-c4cnn5ccc(N6CCC[C@@H]6c6cc(F)ccc6F)nc45)[nH]3)(C1)C2` [Compound 44, (R)-3-(5-(5-(2-(2,5-difluorophenyl)pyrrolidin-1-yl)pyrazolo[1,5-a]pyrimidin-3-yl)-4H-1,2,4-triazol-3-yl)bicyclo[1.1.1]pentan-1-amine] stands 5.28 nM; under `OB1OCc2ccc(-c3nnc(-c4cnn5ccc(N6CCC[C@@H]6c6cc(F)ccc6F)nc45)[nH]3)cc21` [Compound 45, (R)-6-(5-(5-(2-(2,5-difluorophenyl)pyrrolidin-1-yl)pyrazolo[1,5-a]pyrimidin-3-yl)-4H-1,2,4-triazol-3-yl)benzo[c][1,2]oxaborol-1(3H)-ol], 0.8 nM.
